Measurements published in ChEMBL document CHEMBL1201862, “PubChem BioAssay data set” (2004).
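Protocol summary: plate cells (96-well), add compound at 5 concentrations, incubate 48 h, interpolate endpoints linearly. Here, GI50 denotes the concentration required for 50% inhibition of growth.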 Active and inactive are the calls of the source. Cut-off read from the data, not from the text of the source: active = GI50 up to about 1.1 µM and inactive = higher.

Tests used:
Assay in all cases: NCI tumour cell line growth inhibition, 48 h
[1] = tested on: 786-0
[2] = tested on: A498
[3] = tested on: A549
[4] = tested on: ACHN
[5] = tested on: BT-549
[6] = tested on: CAKI-1
[7] = tested on: CCRF-CEM
[8] = tested on: COLO 205
[9] = tested on: DU-145
[10] = tested on: EKVX
[11] = tested on: HCC 2998
[12] = tested on: HCT-116
[13] = tested on: HCT-15
[14] = tested on: HL-60
[15] = tested on: HOP-62
[16] = tested on: HOP-92
[17] = tested on: HT-29
[18] = tested on: Hs-578T
[19] = tested on: IGROV-1
[20] = tested on: K562
[21] = tested on: KM12
[22] = tested on: LOX IMVI
[23] = tested on: M14
[24] = tested on: MCF7
[25] = tested on: MDA-MB-231
[26] = tested on: MDA-MB-435
[27] = tested on: MDA-N
[28] = tested on: MOLT-4
[29] = tested on: Malme-3M
[30] = tested on: NCI-H226
[31] = tested on: NCI-H23
[32] = tested on: NCI-H460
[33] = tested on: NCI-H522
[34] = tested on: NCI/ADR-RES
[35] = tested on: OVCAR-3
[36] = tested on: OVCAR-5
[37] = tested on: OVCAR-8
[38] = tested on: PC-3
[39] = tested on: RPMI-8226
[40] = tested on: RXF 393
[41] = tested on: SF-268
[42] = tested on: SF-295
[43] = tested on: SF-539
[44] = tested on: SK-MEL-28
[45] = tested on: SK-MEL-2
[46] = tested on: SK-MEL-5
[47] = tested on: SK-OV-3
[48] = tested on: SN12C
[49] = tested on: SNB-19
[50] = tested on: SR
[51] = tested on: SW-620
[52] = tested on: T47D
[53] = tested on: TK-10
[54] = tested on: U-251
[55] = tested on: UACC-257
[56] = tested on: UACC-62
[57] = tested on: UO-31
[58] = tested on: OVCAR-4
[59] = tested on: SNB-75

In the case of `COc1ccc2c(c1)/C(=C\c1c(Cl)[nH]c3ccccc13)C(=O)N2`, the GI50 [1] is reported as 4.49 µM (inactive), the GI50 [2] is reported as 8 µM (inactive) and the GI50 [3] is reported as 4.99 µM (inactive). For the same molecule, the GI50 [4] was 5.25 µM (inactive), the GI50 [5] was 3.3 µM (inactive) and the GI50 [6] was 3.86 µM (inactive). The GI50 [7] was 3.21 µM (inactive), the GI50 [8] was 2.27 µM (inactive) and the GI50 [9] was 19.3 µM (inactive). The GI50 [10] was 3.3 µM (inactive), the GI50 [11] was 2.68 µM (inactive) and the GI50 [12] was 2.57 µM (inactive). The GI50 [13] was 5.14 µM, the GI50 [14] was 3.18 µM (inactive) and the GI50 [15] was 5.75 µM (inactive). For the same molecule, the GI50 [16] was 1.84 µM (inactive), the GI50 [17] was 2.14 µM (inactive) and the GI50 [18] was 2.51 µM (inactive). For the same molecule, the GI50 [19] was 1.21 µM (inactive), the GI50 [20] was 3.62 µM (inactive) and the GI50 [21] was 3.05 µM (inactive). For the same molecule, the GI50 [22] was 5.09 µM (inactive), the GI50 [23] was 4.08 µM (inactive) and the GI50 [24] was 3.58 µM (inactive). For the same molecule, the GI50 [25] was 4.47 µM (inactive), the GI50 [26] was 1.91 µM (inactive) and the GI50 [27] was 1.75 µM (inactive). For the same molecule, the GI50 [28] was 5.33 µM (inactive), the GI50 [29] was 5.92 µM (inactive) and the GI50 [30] was 16.2 µM (inactive). For the same molecule, the GI50 [31] was 11.4 µM (inactive), the GI50 [32] was 3.98 µM (inactive) and the GI50 [33] was 3.05 µM (inactive). For the same molecule, the GI50 [34] was 2.81 µM (inactive), the GI50 [35] was 6 µM (inactive) and the GI50 [36] was 10.9 µM (inactive). For the same molecule, the GI50 [37] was 11.1 µM (inactive), the GI50 [38] was 4.9 µM (inactive) and the GI50 [39] was 3.61 µM (inactive). For the same molecule, the GI50 [40] was 2.88 µM (inactive), the GI50 [41] was 4 µM (inactive) and the GI50 [42] was 1.97 µM (inactive). For the same molecule, the GI50 [43] was 3.61 µM (inactive), the GI50 [44] was 3.39 µM (inactive) and the GI50 [45] was 4.21 µM (inactive). The GI50 [46] was 3.6 µM (inactive), the GI50 [47] was 2.97 µM (inactive) and the GI50 [48] was 7.8 µM (inactive). For the same molecule, the GI50 [49] was 6.62 µM (inactive), the GI50 [50] was 2.03 µM (inactive) and the GI50 [51] was 3.4 µM (inactive). For the same molecule, the GI50 [52] was 26.1 µM (inactive), the GI50 [53] was 6.9 µM (inactive) and the GI50 [54] was 3.71 µM (inactive). The GI50 [55] was 6.14 µM (inactive), the GI50 [56] was 5.16 µM (inactive) and the GI50 [57] was 6.78 µM (inactive).
For `CC[S+]1C2=C(CC(C)(C)CC2=O)[N-]c2ccccc21` (stereo not given), the GI50 [1] was > 100 µM (inactive), the GI50 [2] was > 100 µM (inactive) and the GI50 [3] was > 100 µM (inactive). For the same molecule, the GI50 [4] was > 100 µM (inactive), the GI50 [5] was > 100 µM (inactive) and the GI50 [6] was > 100 µM (inactive). For the same molecule, the GI50 [7] was > 100 µM (inactive), the GI50 [8] was > 100 µM (inactive) and the GI50 [9] was > 100 µM (inactive). For the same molecule, the GI50 [10] was > 100 µM (inactive), the GI50 [11] was > 100 µM (inactive) and the GI50 [12] was > 100 µM (inactive). The GI50 [13] was over 100 µM, the GI50 [14] was > 100 µM (inactive) and the GI50 [15] was > 100 µM (inactive). The GI50 [16] was > 100 µM (inactive), the GI50 [17] was > 100 µM (inactive) and the GI50 [18] was 78.3 µM (inactive). The GI50 [19] was > 100 µM (inactive), the GI50 [20] was > 100 µM (inactive) and the GI50 [21] was > 100 µM (inactive). For the same molecule, the GI50 [22] was > 100 µM (inactive), the GI50 [23] was > 100 µM (inactive) and the GI50 [24] was 24.4 µM (inactive). The GI50 [25] was > 100 µM (inactive), the GI50 [26] was > 100 µM (inactive) and the GI50 [27] was > 100 µM (inactive). For the same molecule, the GI50 [28] was > 100 µM (inactive), the GI50 [29] was > 100 µM (inactive) and the GI50 [30] was > 100 µM (inactive). The GI50 [31] was > 100 µM (inactive), the GI50 [32] was > 100 µM (inactive) and the GI50 [33] was > 100 µM (inactive). For the same molecule, the GI50 [34] was > 100 µM (inactive), the GI50 [35] was > 100 µM (inactive) and the GI50 [58] was > 100 µM (inactive). The GI50 [36] was > 100 µM (inactive), the GI50 [37] was > 100 µM (inactive) and the GI50 [38] was > 100 µM (inactive). For the same molecule, the GI50 [39] was > 100 µM (inactive), the GI50 [40] was > 100 µM (inactive) and the GI50 [41] was > 100 µM (inactive). For the same molecule, the GI50 [42] was 31.6 µM (inactive), the GI50 [44] was > 100 µM (inactive) and the GI50 [45] was > 100 µM (inactive). The GI50 [46] was > 100 µM (inactive), the GI50 [47] was > 100 µM (inactive) and the GI50 [48] was > 100 µM (inactive). For the same molecule, the GI50 [49] was > 100 µM (inactive), the GI50 [59] was > 100 µM (inactive) and the GI50 [50] was > 100 µM (inactive). For the same molecule, the GI50 [51] was > 100 µM (inactive), the GI50 [52] was > 100 µM (inactive) and the GI50 [53] was > 100 µM (inactive). For the same molecule, the GI50 [54] was > 100 µM (inactive), the GI50 [55] was > 100 µM (inactive) and the GI50 [56] was > 100 µM (inactive). The GI50 [57] was > 100 µM (inactive).
